Patent publication US10485844B2, “Methods for treating severe atopic dermatitis by administering an IL-4R inhibitor” (Regeneron Pharmaceuticals, Inc., priority 2016, dated 2019)
Entries after “also recorded” stand apart in the source; their conditions may differ.

Key:
[1] = Phase 2a pediatric study: pharmacokinetic profile of dupilumab; assay type: in vivo, human; conditions: pediatric patients with AD, compared with adults
Method: (§1) The study consisted of a screening period (day −35 to day −1), a baseline visit, Part A (including a single-dose treatment followed by an 8-week semi-dense PK sampling period), and Part B (including a 4-week repeat-dose treatment period [4 weekly doses] followed by an 8-week follow-up period).
(§2) Safety and tolerability was assessed by vital signs, physical examinations, clinical laboratory tests, and clinical evaluations. Patients were asked to monitor all adverse events (AEs) experienced from the time of informed consent/assent until their last study visit. Serum samples were collected for assay of dupilumab levels, and PK parameters were calculated using the dupilumab concentration data. Serum samples were collected for assay of ADA, and exploratory analyses. Efficacy was assessed during the study at specified clinic visits using the Pruritus NRS, SCORAD, and EASI that measure the extent and severity of AD, and the IGA that rates the overall severity of AD.

CYP3A = assay: Effect of dupilumab on PK of CYP substrate cocktail: midazolam; conditions: 600 mg loading dose, then 300 mg weekly
Method: Subcutaneous dupilumab was administered as a 600 mg loading dose on Day 8, followed by a weekly dose of 300 mg from Day 15 to Day 50. PK parameters included Geometric Mean Ratios (GMR) of AUClast (area under the plasma concentration-time curve from time zero to the time of the last quantifiable concentration) and Cmax (maximum observed plasma concentration) measured at Day 1 and Day 36, while efficacy assessments included changes in Eczema Area and Severity Index (EASI) scores (scale 0-72).

[2] = tested on: pediatric patients with moderate-to-severe AD (adolescents) or severe AD (children); assay: Phase 2a open-label ascending-dose study of dupilumab in pediatric AD (efficacy and safety); assay type: in vivo, human; conditions: for patients who achieved IGA 0-1 / peak pruritus NRS improved by / baseline EASI improved by: Week 12; for baseline EASI improved by: after repeated weekly doses; for reduction in EASI score from baseline: week 2
Method: This Example describes a phase 2a, multicenter, open-label, ascending-dose, sequential-cohort study (NCT02407756) which included adolescents (12-17 years) with moderate-to-severe AD and children (6-11 years) with severe AD, uncontrolled by topical medications. Patients received 2 mg/kg or 4 mg/kg single-dose subcutaneous dupilumab with 8 weeks follow-up, followed by 4 weekly 2 mg/kg or 4 mg/kg doses.
This was conducted as a phase 2a, multicenter, open-label, ascending dose, sequential cohort study investigating the safety, tolerability, pharmacokinetics (PK), immunogenicity, and efficacy of single-dose and repeat-doses of subcutaneously administered (SC) dupilumab in pediatric patients with moderate-to-severe AD (for adolescents ≥12 to <18 years of age) or severe AD (for children ≥6 to <12 years of age) that was not adequately controlled by topical treatments.
Two sequential ascending SC dose cohorts were planned: dose cohort 1 (2 mg/kg) and dose cohort 2 (4 mg/kg) up to a maximum dose of 300 mg. Within each dose cohort, approximately 36 to 40 patients were planned to be enrolled in 2 age subsets: subset A (adolescents ≥12 to <18 years of age) and subset B (children ≥6 to <12 years of age). Enrollment and study dosing started with cohort 1A (2 mg/kg, adolescent age subset) and proceeded in sequence to cohort 1B (2 mg/kg, children ≥6 to <12 years of age subset), cohort 2A (4 mg/kg, adolescent age subset), and cohort 2B (4 mg/kg, children ≥6 to <12 years of age subset); a safety review of data from the previous cohort(s) was performed before proceeding to the next cohort.
as §1
Sterile dupilumab drug product 150 mg/mL was provided in an aqueous buffered vehicle, pH 5.0. It was supplied in a 5-mL vial containing 2.5 mL (150 mg/mL) with a withdrawable volume of 2.0 mL or 300 mg of dupilumab. Study drug was administered SC by the investigator or other qualified study personnel at the following dose and dosing schedules: • For dose cohort 1: 2 mg/kg at day 1 as a single dose in Part A, then weekly at day 1 to week 3 in Part B as repeat doses • For dose cohort 2: 4 mg/kg at day 1 as a single dose in Part A, then weekly at day 1 to week 3 in Part B as repeat doses
The primary objective was characterizing the PK profiles of dupilumab in pediatric AD patients aged ≥6 to <18 years. The secondary endpoints were: • Incidence of TEAEs • Percent change from baseline in Eczema Area and Severity Index (EASI) • Percent change from baseline in SCORing Atopic Dermatitis (SCORAD) score • Percent change from baseline in Pruritus Numerical Rating Scale (NRS) • Percentage of patients with an IGA score of 0 or 1 • Change from baseline in % BSA affected by AD Study Variables and Procedures
as §2

[3] = tested on: patients with moderate-to-severe AD; assay: Pooled subgroup analysis of two 16-week phase 3 dupilumab monotherapy trials by CsA eligibility / CsA history; assay type: in vivo, human; conditions: for Patients achieving EASI 75, n (%) / Patients achieving IGA 0-1, n (%) / bacterial conjunctivitis rate / conjunctivitis rate: 16 weeks; for Patients achieving a ≥4-point improvement in peak pruritus NRS, n/N1 (%): baseline NRS ≥4
Method: Pts (N=1379) with moderate-to-severe AD whose disease was not adequately controlled by topical medications or for whom topical treatment is medically inadvisable were randomized to receive subcutaneous injections of placebo (PBO) or dupilumab 300 mg every 2 weeks (q2w) or weekly (qw) for 16 weeks.
Subset A pts had, on average, more severe disease than subset B pts, as assessed by Eczema Area and Severity Index (EASI; mean baseline±SD EASI score 37.2±14.69 vs 32.0±13.29; nominal p<0.0001).

[4] = CSA-eligible subset, Dupilumab 300 mg Q2W
[5] = CSA-eligible subset, Dupilumab 300 mg QW
[6] = CSA-ineligible subset, Dupilumab 300 mg Q2W
[7] = CSA-ineligible subset, Dupilumab 300 mg QW

## dupilumab: fully human anti-IL-4R antibody; heavy chain SEQ ID NO: 9, light chain SEQ ID NO: 10
[1]
  pharmacokinetic profile: consistent with adults
CYP3A
  effect of dupilumab on the PK of midazolam / activity of CYP3A: no meaningful effect; also recorded: does not have a meaningful effect
[2]; adolescent 2 mg cohort
  patients who achieved IGA 0-1: 10%
  peak pruritus NRS improved by: 30.8%
  baseline EASI improved by: 66.4%
[2]; adolescent 4 mg cohort
  patients who achieved IGA 0-1: 35%
  peak pruritus NRS improved by: 37.6%
  baseline EASI improved by: 69.7%
[2]; adolescent patients, single dose 2 mg/kg
  reduction in EASI score from baseline: 34%
[2]; adolescent patients, single dose 4 mg/kg
  reduction in EASI score from baseline: 51%
[2]; children 2 mg/kg cohort
  patients who achieved IGA 0-1: 16.7%
  peak pruritus NRS improved by: 41.6%
  baseline EASI improved by: 76.2%
[2]; children 4 mg cohort
  patients who achieved IGA 0-1: 21.1%
  peak pruritus NRS improved by: 39.6%
  baseline EASI improved by: 63.4%
[2]; children, single dose 2 mg/kg
  reduction in EASI score from baseline: 37%
[2]; children, single dose 4 mg/kg
  reduction in EASI score from baseline: 33%
[2]; single and repeated weekly doses of 2 mg/kg and 4 mg/kg, both pediatric age groups
  safety and tolerability: No new safety signals; also recorded: generally safe and well tolerated
[3]; CSA-eligible subset, Dupilumab 300 mg Q2W (N = 353)
  Patients achieving EASI 75, n (%): (49.9) %
[3]; [4]
  Patients achieving IGA 0-1, n (%): (38.8) %
  Patients achieving a ≥4-point improvement in peak pruritus NRS, n/N1 (%): (39.7) %
[3]; CSA-eligible subset, Dupilumab 300 mg QW (N = 366)
  Patients achieving EASI 75, n (%): (54.1) %
[3]; [5]
  Patients achieving IGA 0-1, n (%): (39.1) %
  Patients achieving a ≥4-point improvement in peak pruritus NRS, n/N1 (%): (40.5) %
[3]; CSA-ineligible subset, Dupilumab 300 mg Q2W (N = 104)
  Patients achieving EASI 75, n (%): (40.4) %
[3]; [6]
  Patients achieving IGA 0-1, n (%): (30.8) %
  Patients achieving a ≥4-point improvement in peak pruritus NRS, n/N1 (%): (33.7) %
[3]; CSA-ineligible subset, Dupilumab 300 mg QW (N = 96)
  Patients achieving EASI 75, n (%): (35.4) %
[3]; [7]
  Patients achieving IGA 0-1, n (%): (28.1) %
  Patients achieving a ≥4-point improvement in peak pruritus NRS, n/N1 (%): (36.3) %
[3]; CsA-eligible, dupilumab q2w
  bacterial conjunctivitis rate: 0.6%
  conjunctivitis rate: 5%
[3]; CsA-eligible, dupilumab qw
  bacterial conjunctivitis rate: 1.1%
  conjunctivitis rate: 3.3%
[3]; CsA-ineligible, dupilumab q2w
  bacterial conjunctivitis rate: 3.8%
  conjunctivitis rate: 1.9%
[3]; CsA-ineligible, dupilumab qw
  bacterial conjunctivitis rate: 4.2%
  conjunctivitis rate: 4.2%
[3]; Subset A (inadequate response or intolerance to CsA), Dupilumab 300 mg Q2W (N = 94)
  Patients achieving EASI 75, n (%): (38.3) %
[3]; Subset A, Dupilumab 300 mg Q2W
  Patients achieving IGA 0-1, n (%): (29.8) %
  Patients achieving a ≥4-point improvement in peak pruritus NRS, n/N1 (%): (33.7) %
[3]; Subset A, Dupilumab 300 mg QW (N = 83)
  Patients achieving EASI 75, n (%): (34.9) %
[3]; Subset A, Dupilumab 300 mg QW
  Patients achieving IGA 0-1, n (%): (27.7) %
  Patients achieving a ≥4-point improvement in peak pruritus NRS, n/N1 (%): (34.1) %
[3]; Subset B (remaining study population), Dupilumab 300 mg Q2W (N = 363)
  Patients achieving EASI 75, n (%): (50.1) %
[3]; Subset B, Dupilumab 300 mg Q2W
  Patients achieving IGA 0-1, n (%): (38.8) %
  Patients achieving a ≥4-point improvement in peak pruritus NRS, n/N1 (%): (39.5) %
[3]; Subset B, Dupilumab 300 mg QW (N = 379)
  Patients achieving EASI 75, n (%): (53.6) %
[3]; Subset B, Dupilumab 300 mg QW
  Patients achieving IGA 0-1, n (%): (38.8) %
  Patients achieving a ≥4-point improvement in peak pruritus NRS, n/N1 (%): (40.9) %
